Experimental data taken from patent US12544450B2, “Medical uses of thiol-functionalized polyglycerol derivatives” (FREIE UNIVERSITÄT BERLIN, priority 2019, dated 2026).
Entries after “also recorded” stand apart in the source; their conditions may differ.

Test system: lung mucus collected from patients with cystic fibrosis
Experiment: Macrorheology of cystic fibrosis lung mucus after treatment with reducing agents
Parameters: species or system human
Details: 30 min at 37° C.; for Viscosity of CF mucus after treatment: frequency sweep at 2% strain, FIG. 8
Procedure: In order to determine the mucolytic potential of thiol-functionalized polyglycerol derivatives the rheological properties of lung mucus, which was collected from patients with cystic fibrosis, were determined before and after treatment with different reducing or control agents. In addition, mucus from a healthy donor was used as control. Rheological measurements can be generally used to determine both elastic and viscous material components. Clinical samples were obtained freshly from cystic fibrosis (CF) patients at Charité Berlin and put directly on ice after collection. Then, the samples were mixed with a protease inhibitor cocktail (Roche) and aliquoted in 150 μl portions. The samples were then treated with different concentrations of freshly prepared reducing agents for 30 min at 37° C. Control samples were kept on ice throughout the incubation time or treated with phosphate-buffered saline (PBS) and incubated for 30 min at 37° C. After the incubation time all samples were kept on ice until use for the macrorheological studies. Here, a Kinexus instrument (Malvern) with a cone-and-plate setup was used. The cone geometry was 20 mm diameter and a […] angle. Each sample was run with an amplitude sweep mode at an oscillatory frequency of 1 Hz to determine the linear viscoelastic regime. In order to obtain viscosity parameters, measurements were repeated at 2% stain in a frequency sweep mode.

Structure (SMILES)	Viscosity of CF mucus after treatment	Elastic modulus (G') of CF mucus after treatment (amplitude sweep at 1 Hz, FIG. 7)
O[C@H](CS)[C@H](O)CS (racemic) [DTT, Dithiothreitol]	reduces the viscosity of CF mucus to level significantly below the viscosity level of mucus from healthy individuals; also recorded: completely destroys the viscosity properties of mucus	–
CC(=O)N[C@@H](CS)C(=O)O [NAC, N-acetylcysteine]	does not show any enhanced mucolytic activity than PBS	comparably slight reduction of the elastic modulus like a treatment with physiological phosphate buffer (PBS)
